Source: US20020025306A1, “Methods of increasing the glucose responsiveness of pancreatic ss-cells” (priority 2000, published 2002)

Columns and labels:
[1] = test system: CDM5 cells (β-tcTet cells); test: Cell membrane potential measured with the bis-oxonol assay; type: cell-based
Protocol: In order to test the bioefficacy of GLP-1, which was believed to be secreted by β-1081 cells, the supernatant of the 1081 cells were kept for 4 hours in 25 mM KRBH. CDM5 cells (a type of β-cTCtet cell) were then stimulated with this supernatant. Next, the effect of this stimulation in cell membrane potential was measured using the bis-oxonol assay.
Those skilled in the art will recognize that GLP-1 has the effect of depolarizing the cell membrane upon application. This depolarization is the result of the stimulatory effect of GLP-1 on cAMP, which, as discussed above, leads to increased insulin secretion. The increased insulin secretion is the result of both the enhanced closing of ATP sensitive potassium (K^+ ATP) channels in the membrane of the β-cell as well as the protein kinase A activation of distal exocytotic events.
The cells were allowed to equilibrate in 8 mM glucose and 400 μM Diazoxide for 600 seconds. At 200, 400, 600, 800, and 1000 seconds, 1, 2, 4, 6, and 8 nM GLP-1-gly8, respectively, were added to the medium.
In this experiment, the cells were equilibrated at 8 mM glucose and 400 μM of diazoxide for 600 seconds. At t=100 seconds, 100 nM of Exendine-(9-39) was added. […] At t=600 seconds, 20 μl of water was added as a dilution control.
Again, the cells were allowed to equilibrate at 8 mM glucose and 400 μM Diazoxide for 600 seconds. At 200 seconds, 24 μl of the supernatant of the GLP-1 secreting 1081 cells were added to the cells. […] At 1500 seconds, 24 μl of the supernatant was added.
Exendine (9-39) is an inhibitor of GLP-1 activity. […] In this experiment, the equilibration period lasted from time […]. At t=200 seconds, […] of Exendine (9-39) was added to the cells.

[2] = test system: diabetic mice implanted with encapsulated CDM3D cells; test: In vivo evaluation of GLP-1-gly8 injected intraperitoneally in diabetic mice implanted with encapsulated CDM3D cells
Source text: The effect observed in the control group can probably be attributed to the few remaining islets (β-cells) in the pancreas of the mice that remain functional following streptozocin treatment.

[3] = comparison of GLP-1-gly8 and wild type GLP-1; cited from earlier work

For `CC1=NS(=O)(=O)c2cc(Cl)ccc2N1` [Diazoxide], the membrane potential ([1]; 8 mM glucose and 400 μM Diazoxide, 2×10^6 cells, FIG. 6) was “maximum hyperpolarization” and the membrane potential ([1]; 400 μm Diazoxide at t=2800 s, FIG. 2) was “maximum depolarization”.

In the case of “GLP-1-gly8: commercial GLP-1-gly8, given rather than wild-type GLP-1; half-life longer than wild type GLP-1 (HDEFERHGEGTFTSDVSSYLEGQAAKEFIAWLVKGRG; Glucagon-like peptide 1; UniProt P01275 92-128, looked up, variant A8G)”, the membrane potential ([1]; 8 nM GLP-1-gly8, cells in 8 mM glucose and 400 μM Diazoxide, FIG. 3) was “saturation of the effect”, the membrane potential ([1]; 1, 2, 4, 6 nM GLP-1-gly8, cells in 8 mM glucose and 400 μM Diazoxide, FIG. 3) was “depolarization of the cell membrane” and the membrane potential ([1]; GLP-1-gly8 after exposure of the cells to Exendine-(9-39), FIG. 4) was “no response was observed”. For the same compound, the “glycemia after injection, test group” value ([2]; 0.1 nmol IP at t=0, streptozocin-diabetic mice implanted IP with encapsulated CDM3D cells, first two hours, FIG. 1) was “large decrease in glycemia”, the “glycemia after injection, control group” value ([2]; 0.1 nmol IP at t=0, streptozocin-diabetic non-implanted mice, FIG. 1) was “smaller (and shorter decrease) in glycemia” and the “loss of the effect on glycemia in the test group” value ([2]; 0.1 nmol IP, implanted diabetic mice) was 120 min. The half-life [3] was “longer than the half-life of wild type GLP-1”.
